Measurements: patent US20080194617A1, “Fused ring compound” (priority 2007, published 2008)

Target: T1, PPARγ-RXRα heterodimer (Homo sapiens, UniProt P37231)
T1 construct: expressed in transfected cells; host or cells: CHO-K1 (PPARγ:RXRα:4ERPP/CHO-K1)
T1 sequence (P37231 1-505): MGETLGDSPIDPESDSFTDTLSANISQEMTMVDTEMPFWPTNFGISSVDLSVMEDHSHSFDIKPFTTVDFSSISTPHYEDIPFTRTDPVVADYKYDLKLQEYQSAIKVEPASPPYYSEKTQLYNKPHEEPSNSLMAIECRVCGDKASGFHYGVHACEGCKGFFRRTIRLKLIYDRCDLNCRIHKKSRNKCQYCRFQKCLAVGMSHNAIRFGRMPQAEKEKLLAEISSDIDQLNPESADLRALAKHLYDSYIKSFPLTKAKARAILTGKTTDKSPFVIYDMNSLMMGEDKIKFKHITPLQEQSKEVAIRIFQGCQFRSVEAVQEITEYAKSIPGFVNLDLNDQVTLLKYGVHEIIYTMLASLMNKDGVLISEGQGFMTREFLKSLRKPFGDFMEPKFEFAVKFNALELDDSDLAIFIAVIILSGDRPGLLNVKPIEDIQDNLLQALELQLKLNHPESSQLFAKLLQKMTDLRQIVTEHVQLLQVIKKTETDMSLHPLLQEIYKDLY
T1 sequence (P19793 1-462 partner): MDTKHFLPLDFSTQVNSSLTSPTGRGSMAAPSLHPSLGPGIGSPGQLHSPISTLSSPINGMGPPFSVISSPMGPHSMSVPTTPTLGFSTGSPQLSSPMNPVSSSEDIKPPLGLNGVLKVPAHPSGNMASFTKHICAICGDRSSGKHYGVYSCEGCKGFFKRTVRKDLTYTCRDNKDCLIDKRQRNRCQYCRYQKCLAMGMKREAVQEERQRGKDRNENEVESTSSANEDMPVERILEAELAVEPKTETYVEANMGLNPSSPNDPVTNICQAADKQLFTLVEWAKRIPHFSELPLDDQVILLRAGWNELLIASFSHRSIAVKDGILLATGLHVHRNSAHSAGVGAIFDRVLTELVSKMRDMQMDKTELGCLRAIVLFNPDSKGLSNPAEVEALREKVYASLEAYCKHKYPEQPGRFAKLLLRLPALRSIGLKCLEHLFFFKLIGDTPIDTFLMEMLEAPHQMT
Assay: PPARγ-RXRα heterodimer ligand activity (luciferase reporter assay in PPARγ:RXRα:4ERPP/CHO-K1 cells)
Assay type: cell-based
Settings: incubated one day with test compound, luciferase induction rate, compound concentration showing 50% of the maximum value of induction rate
Procedure: The PPARγ:RXRα:4ERPP/CHO-K1 cells described in WO03/099793 were cultured in a Ham F12 medium [manufactured by Life Technologies, Inc., US] containing 10% calf fetal serum [manufactured by Life Technologies, Inc., US], sown in a 96-well white plate [manufactured by Corning Coster Corporation, US] at 1×10^4 cells/well, and incubated overnight in a carbon dioxide gas incubator at 37° C.
Then, the medium was removed from the 96 well white plate, 45 μl of Ham F12 medium containing 0.1% fatty acid-free bovine serum albumin (BSA) and a test compound (5 μl) were added, and the cells were incubated for one day in a carbon dioxide gas incubator at 37° C. The medium was removed, 20 μl of PicaGene 7.5 (manufactured by Wako Pure Chemical Industries, Ltd.) 2-fold diluted with HBSS (HANKS' BALANCED SALT SOLUTION) [manufactured by BIO WHITTAKER, US] was added. After stirring, the luciferase activity was determined using the 1420 ARVO Multilabel Counter [manufactured by PerkinElmer, US].
The induction rate was calculated from the luciferase activity of each test compound based on the luciferase activity of the test compound non-administration group as 1. The test compound concentration and the induction rate were analyzed by PRISM [manufactured by GraphPad Software, Inc., US] to calculate EC50 value (compound concentration showing 50% of the maximum value of induction rate) of the test compound.

| Structure (SMILES) | EC50 [nM] |
| --- | --- |
| CCCCCS(=O)(=O)NC(=O)/C=C/c1c(C)nn(C)c1-c1csc2ccccc12 [Example 6, (2E)-3-[5-(1-benzothien-3-yl)-1,3-dimethyl-1H-pyrazol-4-yl]-N-(pentylsulfonyl)acrylamide] | 19 |
| CCCCCS(=O)(=O)NC(=O)/C=C/c1c(C)nn(C)c1-n1ccc2ccccc21 [Example 7, potassium {(2E)-3-[5-(1H-indol-1-yl)-1,3-dimethyl-1H-pyrazol-4-yl]prop-2-enoyl}(pentylsulfonyl)azanide] | 39 |
| CCCCCS(=O)(=O)NC(=O)/C=C/c1c(C)nn(C)c1-n1ccc2cccnc21 [Example 9, (2E)-3-[1,3-dimethyl-5-(1H-pyrrolo[2,3-b]pyridin-1-yl)-1H-pyrazol-4-yl]-N-(pentylsulfonyl)acrylamide] | 64 |
| CCCCCS(=O)(=O)NC(=O)/C=C/c1c(C)nn(C)c1-n1ccc2ccc(C(F)(F)F)cc21 [Example 31, potassium ((2E)-3-{1,3-dimethyl-5-[6-(trifluoromethyl)-1H-indol-1-yl]-1H-pyrazol-4-yl}prop-2-enoyl)(pentylsulfonyl)azanide] | 5.5 |
| Cc1ccc(S(=O)(=O)NC(=O)/C=C/c2c(C)nn(C)c2-n2ccc3cccnc32)cc1 [Example 33, (2E)-3-[1,3-dimethyl-5-(1H-pyrrolo[2,3-b]pyridin-1-yl)-1H-pyrazol-4-yl]-N-[(4-methylphenyl)sulfonyl]acrylamide] | 88 |
| CCCCCS(=O)(=O)NC(=O)CCc1c(C)nn(C)c1N1CCc2cccnc21 [Example 40, 3-[5-(2,3-dihydro-1H-pyrrolo[2,3-b]pyridin-1-yl)-1,3-dimethyl-1H-pyrazol-4-yl]-N-(pentylsulfonyl)propanamide] | 12 |
| Cc1nn(C)c(-n2ccc3cc(Cl)ccc32)c1/C=C/C(=O)NS(=O)(=O)c1ccco1 [Example 55, (2E)-3-[5-(5-chloro-1H-indol-1-yl)-1,3-dimethyl-1H-pyrazol-4-yl]-N-(2-furylsulfonyl)acrylamide] | 44 |
| CCCCCNS(=O)(=O)NC(=O)/C=C/c1c(C)nn(C)c1-n1ccc2cc(Cl)ccc21 [Example 62, (2E)-3-[5-(5-chloro-1H-indol-1-yl)-1,3-dimethyl-1H-pyrazol-4-yl]-N-[(pentylamino)sulfonyl]acrylamide] | 37 |
| CCCCCS(=O)(=O)NC(=O)NCCCc1c(C)nn(C)c1-n1ccc2cc(Cl)ccc21 [Example 82, N-[({3-[5-(5-chloro-1H-indol-1-yl)-1,3-dimethyl-1H-pyrazol-4-yl]propyl}amino)carbonyl]pentane-1-sulfonamide] | 67 |
| CCCCNS(=O)(=O)NC(=O)/C=C/c1c(C)nn(C)c1-n1ccc2cc(Cl)ccc21 [Example 99, (2E)-N-[(butylamino)sulfonyl]-3-[5-(5-chloro-1H-indol-1-yl)-1,3-dimethyl-1H-pyrazol-4-yl]acrylamide] | 24 |
| Cc1nn(C)c(-n2ccc3cc(Cl)ccc32)c1CCS(=O)(=O)NC(=O)OCC1CC1 [Example 189, cyclopropylmethyl ({2-[5-(5-chloro-1H-indol-1-yl)-1,3-dimethyl-1H-pyrazol-4-yl]ethyl}sulfonyl)carbamate] | 54 |
| CCCCOC(=O)NS(=O)(=O)CCc1c(C(F)(F)F)nn(C)c1-n1ccc2cc(Cl)cnc21 [Example 197, butyl ({2-[5-(5-chloro-1H-pyrrolo[2,3-b]pyridin-1-yl)-1-methyl-3-(trifluoromethyl)-1H-pyrazol-4-yl]ethyl}sulfonyl)carbamate] | 86 |
| Cc1nn(C)c(-n2ccc3cc(Cl)cnc32)c1/C=C/C(=O)NS(=O)(=O)NCC1CC1 [Example 264, (2E)-3-[5-(5-chloro-1H-pyrrolo[2,3-b]pyridin-1-yl)-1,3-dimethyl-1H-pyrazol-4-yl]-N-{[(cyclopropylmethyl)amino]sulfonyl}acrylamide] | 26 |
| CCCCNC(=O)NS(=O)(=O)CCc1c(C)nn(C)c1-n1ccc2cc(C(F)(F)F)cnc21 [Example 294, N-[(butylamino)carbonyl]-2-{1,3-dimethyl-5-[5-(trifluoromethyl)-1H-pyrrolo[2,3-b]pyridin-1-yl]-1H-pyrazol-4-yl}ethanesulfonamide] | 32 |

Further compounds by falling EC50, results first:

| EC50 [nM] | Structure (SMILES) |
| --- | --- |
| 220 | Cc1nn(C)c(-n2ccc3cc(Cl)ccc32)c1/C=C1\SC(=O)NC1=O [Example 84, (5Z)-5-{[5-(5-chloro-1H-indol-1-yl)-1,3-dimethyl-1H-pyrazol-4-yl]methylene}-1,3-thiazolidine-2,4-dione] |
| 60 | CCCCNC(=O)NS(=O)(=O)CCc1c(C2CC2)nn(C)c1-n1ccc2cc(Cl)cnc21 [Example 279, N-[(butylamino)carbonyl]-2-[5-(5-chloro-1H-pyrrolo[2,3-b]pyridin-1-yl)-3-cyclopropyl-1-methyl-1H-pyrazol-4-yl]ethanesulfonamide] |
| 54 | CCCCCS(=O)(=O)NC(=O)/C=C/c1c(C)nn(C)c1-c1cccc2cccnc12 [Example 24, (2E)-3-[1,3-dimethyl-5-(quinolin-8-yl)-1H-pyrazol-4-yl]-N-(pentylsulfonyl)acrylamide] |
| 22 | CCCCCS(=O)(=O)NC(=O)OCCc1c(C)nn(C)c1-n1ccc2cc(Cl)ccc21 [Example 66, 2-[5-(5-chloro-1H-indol-1-yl)-1,3-dimethyl-1H-pyrazol-4-yl]ethyl (pentylsulfonyl)carbamate] |
| 22 | CCCCOC(=O)NS(=O)(=O)CCc1c(C)nn(C)c1-n1ccc2cc(C(F)(F)F)cnc21 [Example 295, butyl [(2-{1,3-dimethyl-5-[5-(trifluoromethyl)-1H-pyrrolo[2,3-b]pyridin-1-yl]-1H-pyrazol-4-yl}ethyl)sulfonyl]carbamate] |
| 15 | CCCCCS(=O)(=O)NC(=O)/C=C/c1c(C)nn(C)c1-n1ccc2cc(C)cnc21 [Example 232, (2E)-3-[1,3-dimethyl-5-(5-methyl-1H-pyrrolo[2,3-b]pyridin-1-yl)-1H-pyrazol-4-yl]-N-(pentylsulfonyl)acrylamide] |
| 14 | CCCCS(=O)(=O)NC(=O)/C=C/c1c(C)nn(C)c1-n1ccc2cc(Cl)cnc21 [Example 283, (2E)-N-(butylsulfonyl)-3-[5-(5-chloro-1H-pyrrolo[2,3-b]pyridin-1-yl)-1,3-dimethyl-1H-pyrazol-4-yl]acrylamide] |
| 6.1 | CCCCCS(=O)(=O)NC(=O)/C=C/c1c(C)nn(C)c1-n1ccc2cc(Cl)ccc21 [Example 27, (2E)-3-[5-(5-chloro-1H-indol-1-yl)-1,3-dimethyl-1H-pyrazol-4-yl]-N-(pentylsulfonyl)acrylamide] |
